{"source": "patent US5608091A", "about": "“Quinizarin compound, method for production thereof, and use therefor” (Nippon Shokubai Co., Ltd., priority 1993, dated 1997)", "key": {"[1]": {"experiment": "Visible absorption spectrum (λmax, ε)", "assay_type": "physicochemical", "details": "for ε: in M-1 cm-1 (unit assumed)"}, "[2]": {"experiment": "Solubility in toluene and methyl ethyl ketone, three-point scale", "assay_type": "physicochemical", "source_text": "In these tables, the solubility is rated on the three-point scale, wherein Δ stands for a solubility of less than 1% by weight, .largecircle. for a solubility in the approximate range of 1 to 3% by weight, and .circleincircle. for a solubility of not less than 3% by weight."}, "Color tone of the dye": {"experiment": "Color tone of the dye", "assay_type": "physicochemical", "details": "Tables 1-9"}, "[3]": {"experiment": "Stability in storage of thermal transfer recorded images", "details": "50° C., 50 hours", "procedure": "The recorded images obtained as described above were left standing in an atmosphere kept at 50° C. for 50 hours and, after the standing, were examined to determine the presence or absence of change caused on the images owing to the standing.\n(§1) Ink compositions were prepared, transfer sheets produced, and transfer recording carried out by following the procedure of Example 89 while using the dye shown in Table 11 instead. The recorded images were tested for lightfastness and then for stability in storage in the same manner as in Example 89.\nas §1, with “dyes” for “dye”, “12” for “11”"}}}
{"compound": "O=C1c2c(O)ccc(O)c2C(=O)c2c(F)c(Nc3c(Cl)cccc3Cl)c(F)c(F)c21", "note": "[(22)]", "values": [{"measurement": "λ max", "setting": "[1]; in chloroform", "value": 521, "unit": "nm"}, {"measurement": "ε", "setting": "[1]; in chloroform, at λ max", "value": 9470}, {"measurement": "Solubility in methyl ethyl ketone", "setting": "[2]", "value": ".largecircle. (a solubility in the approximate range of 1 to 3% by weight)"}, {"measurement": "Solubility in toluene", "setting": "[2]; in toluene", "value": ".circleincircle. (a solubility of not less than 3% by weight)"}, {"measurement": "Color tone", "setting": "Color tone of the dye", "value": "Magenta"}, {"measurement": "Stability in storage", "setting": "[3]", "value": "Good"}]}
{"compound": "CCCCCCCCOc1c(F)c2c(c(F)c1Nc1ccc(C#N)cc1)C(=O)c1c(O)ccc(O)c1C2=O", "note": "[(45)]", "values": [{"measurement": "λ max", "setting": "[1]; in chloroform", "value": 524, "unit": "nm"}, {"measurement": "ε", "setting": "[1]; in chloroform, at λ max", "value": 15400}, {"measurement": "Solubility in methyl ethyl ketone", "setting": "[2]", "value": ".circleincircle. (a solubility of not less than 3% by weight)"}, {"measurement": "Solubility in toluene", "setting": "[2]; in toluene", "value": ".circleincircle. (a solubility of not less than 3% by weight)"}, {"measurement": "Color tone", "setting": "Color tone of the dye", "value": "Magenta"}, {"measurement": "Stability in storage", "setting": "[3]", "value": "Good"}]}
{"compound": "CCCCCCCCOc1c(F)c2c(c(F)c1Nc1c(CC)cccc1CC)C(=O)c1c(O)ccc(O)c1C2=O", "note": "[(51)]", "values": [{"measurement": "λ max", "setting": "[1]; in chloroform", "value": 563, "unit": "nm"}, {"measurement": "ε", "setting": "[1]; in chloroform, at λ max", "value": 11400}, {"measurement": "Solubility in methyl ethyl ketone", "setting": "[2]", "value": ".circleincircle. (a solubility of not less than 3% by weight)"}, {"measurement": "Solubility in toluene", "setting": "[2]; in toluene", "value": ".circleincircle. (a solubility of not less than 3% by weight)"}, {"measurement": "Color tone", "setting": "Color tone of the dye", "value": "Purple"}, {"measurement": "Stability in storage", "setting": "[3]", "value": "Good"}]}
{"compound": "CCCCCCCCOc1c(F)c2c(c(F)c1Nc1ccc([N+](=O)[O-])cc1)C(=O)c1c(O)ccc(O)c1C2=O", "note": "[(41)]", "values": [{"measurement": "λ max", "setting": "[1]; in chloroform", "value": 524, "unit": "nm"}, {"measurement": "ε", "setting": "[1]; in chloroform, at λ max", "value": 13200}, {"measurement": "Solubility in methyl ethyl ketone", "setting": "[2]", "value": ".circleincircle. (a solubility of not less than 3% by weight)"}, {"measurement": "Solubility in toluene", "setting": "[2]; in toluene", "value": ".circleincircle. (a solubility of not less than 3% by weight)"}, {"measurement": "Color tone", "setting": "Color tone of the dye", "value": "Magenta"}, {"measurement": "Stability in storage", "setting": "[3]", "value": "Good"}]}
{"compound": "O=C1c2ccc(Nc3c(Cl)cccc3Cl)cc2C(=O)c2c(O)ccc(O)c21", "note": "[(102)]", "values": [{"measurement": "λ max", "setting": "[1]; in toluene", "value": 516, "unit": "nm"}, {"measurement": "ε", "setting": "[1]; in toluene", "value": 15600}, {"measurement": "Solubility", "setting": "[2]; in toluene", "value": "Not less than 3 % by weight"}, {"measurement": "Stability in storage", "setting": "[3]", "value": "Good"}]}
{"compound": "CCc1cccc(CC)c1Nc1c(F)c2c(c(F)c1Nc1c(CC)cccc1CC)C(=O)c1c(O)ccc(O)c1C2=O", "note": "[(137)]", "values": [{"measurement": "λ max", "setting": "[1]; in chloroform", "value": 657, "unit": "nm"}, {"measurement": "ε", "setting": "[1]; in chloroform, at λ max", "value": 3000}, {"measurement": "Solubility in methyl ethyl ketone", "setting": "[2]", "value": ".largecircle. (a solubility in the approximate range of 1 to 3% by weight)"}, {"measurement": "Solubility in toluene", "setting": "[2]; in toluene", "value": ".circleincircle. (a solubility of not less than 3% by weight)"}, {"measurement": "Color tone", "setting": "Color tone of the dye", "value": "Cyan"}, {"measurement": "Stability in storage", "setting": "[3]", "value": "Good"}]}
{"compound": "CCCCCCCCOc1c(F)c2c(c(F)c1Nc1ccc(C(=O)OCCCC)cc1)C(=O)c1c(O)ccc(O)c1C2=O", "note": "[(36)]", "values": [{"measurement": "λ max", "setting": "[1]; in chloroform", "value": 534, "unit": "nm"}, {"measurement": "ε", "setting": "[1]; in chloroform, at λ max", "value": 12700}, {"measurement": "Solubility in methyl ethyl ketone", "setting": "[2]", "value": ".circleincircle. (a solubility of not less than 3% by weight)"}, {"measurement": "Solubility in toluene", "setting": "[2]; in toluene", "value": ".circleincircle. (a solubility of not less than 3% by weight)"}, {"measurement": "Color tone", "setting": "Color tone of the dye", "value": "Magenta"}, {"measurement": "Stability in storage", "setting": "[3]", "value": "Good"}]}
{"compound": "CC(C)c1cccc(C(C)C)c1Nc1c(F)c2c(c(F)c1Nc1c(C(C)C)cccc1C(C)C)C(=O)c1c(O)ccc(O)c1C2=O", "note": "[(139)]", "values": [{"measurement": "λ max", "setting": "[1]; in chloroform", "value": 660, "unit": "nm"}, {"measurement": "ε", "setting": "[1]; in chloroform, at λ max", "value": 26000}, {"measurement": "Solubility in methyl ethyl ketone", "setting": "[2]", "value": ".largecircle. (a solubility in the approximate range of 1 to 3% by weight)"}, {"measurement": "Solubility in toluene", "setting": "[2]; in toluene", "value": ".circleincircle. (a solubility of not less than 3% by weight)"}, {"measurement": "Color tone", "setting": "Color tone of the dye", "value": "Cyan"}, {"measurement": "Stability in storage", "setting": "[3]", "value": "Good"}]}
{"compound": "CCCCOc1c(Nc2c(CC)cccc2CC)c(Nc2c(CC)cccc2CC)c(F)c2c1C(=O)c1c(O)ccc(O)c1C2=O", "note": "[(158)]", "values": [{"measurement": "Stability in storage", "setting": "[3]", "value": "Good"}]}
{"compound": "CCc1ccc(Cl)c(CC)c1Nc1c(F)c2c(c(F)c1Nc1c(CC)ccc(Cl)c1CC)C(=O)c1c(O)ccc(O)c1C2=O", "note": "[(141)]", "values": [{"measurement": "Stability in storage", "setting": "[3]", "value": "Good"}]}
